The values below come from patent publication US20250275993A1, “GLYCOSYLATION INHIBITORS AS THERAPEUTICS FOR STROKE” (The Regents of the University of California, priority 2022, published 2025).

Series [1] has as its system BCEC confluent monolayers. Nature of the series: BCEC scratch assay. The format is cell-based, bovine. The procedure:
BCECs (passage 6-10) and HUVEC (passage 6-8) were used in this assay. Cells were grown until about 80% confluency in 6-well plates, washed twice with PBS and then starved in serum-free DMEM (low Glucose, Hyclone) for 5 hrs before making a “scratch” using 1 ml tip. Cell monolayers were briefly washed once with serum-free media, followed by various treatments in media containing 1% FBS. 48 hrs later, the assay was stopped by adding 2 ml 4% paraformaldehyde. 20 min later, fixed cells were stained with 1 ml Crystal Violet (Sigma). Plates were washed gently under the running tap water and air-dried before taking pictures. Images were acquired by ZEISS Discovery […] microscopy equipped with […] camera. Quantification of wound closure was done using AxioVision LE Rel.4.4 software. Six images were taken for each sample and six measurements (in pixel) were made on each image using AxioVision LE Re1.4.4 software.

The test system of series [2] is bovine choroidal microvascular endothelial cells (BCEC). The experiment in a line: BCEC proliferation assay (AlamarBlue / crystal violet). The format is cell-based. How it is done: The effect of ManN on EC proliferation was assessed.
AlamarBlue detects mitochondria activity as an indication of cell viability which correlates with cell number at certain ranges.
Proliferation assays with BCECs and BRECs were performed. Log-phase growing BCECs or BRECs (passage <10) were trypsinized, re-suspended and seeded in 96-well plates (no coating) in low-glucose DMEM supplemented with 10% bovine calf serum, 2 mM glutamine, and antibiotics (growth medium), at a density of 1200-1500 cells per well in 200 μl volume. All reagents were added at the indicated final concentrations. After 3-6 days, cells were incubated with AlamarBlue for 4 hrs. Fluorescence was measured at 530 nm excitation wavelength and 590 nm emission wavelength. The experiments were repeated at least three times. […] 20% methanol or 0.05% DMSO served as negative controls. […] Human RMVECs and human adult DMVECs were split into Gelatin-coated 96 wells (2000 cells per well) in low glucose DMEM containing 10% FBS. 1200 cells/well was set up for proliferation assay in low glucose media containing 0.5% FBS. Data was collected at day 4 or 5. HUVEC (p7-10) were grown on gelatin-coated plate until it reached 70-80% confluency.
On the day of the assay, cells were dissociated with 0.05% trypsin, which was neutralized with 0.5% FBS-containing EBM. Cells were briefly spun and then re-suspended in 0.5% FBS-media. Cells were counted and plated in 96-well, 1000 cells/well. Triplicate wells were used for each treatment. Data were collected at day 3, and then cells were fixed in 4% paraformaldehyde for 15 min before adding crystal violet. Cell-covered areas were quantified after taking pictures by Image J software.

For series [3], the system named is ERK, AKT, mTOR, CREB, ACC and eNOS. Nature of the series: Western blot of signal transduction pathways in BCECs. The format is cell-based, bovine. How it is done: Cells were allowed to reach-80% confluency in 12-well plates. […] At various time points, plates were taken out of the incubator and kept on ice. […] Lysates were collected and mixed with 4× Bolt LDS Sample Buffer (Novex, Carlsbad, CA) in the presence of Halt protease inhibitors and phosphatase inhibitor cocktail (ThermoFisher scientific, #NP0007). […] HUVECs (passage 6-8) were plated in EBM-2 basal medium (Lonza) with 0.2% FBS. Following overnight culture, cells were serum-starved in EBM-2 medium for 4 hrs prior to treatment with 50 ng/ml of VEGF165 or vehicle controls for various lengths. Equal amounts of protein lysates were analyzed by SDS-PAGE and blotted with the indicated antibodies. Proteins were transferred using Tris-Glycine buffer with 20% Methanol (Proteonomics grade) (Apex BioResearch Products). Membranes were first incubated with 5% milk in TBST, pH 7.6 (TEKnova, Hollister, CA), followed by blotting with primary and secondary antibodies. ECL anti-rabbit IgG, horseradish peroxidase linked whole antibody from donkey or sheep anti-mouse were obtained from GE Healthcare (UK limited). SuperSignal West Dura Extended Duration substrate was from ThermoFisher Scientific. In some cases, the same PVDF membranes were stripped by 8-min incubation in the Restore Plus Western Blot Stripping Buffer (ThermoFisher Scientific) to show total specific protein expression, followed by second stripping for (3-actin expression.

In another series the test system is ischemic hindlimb. The experiment in a line: Hindlimb ischemia model and evaluation of blood flow. The format is in vivo, mouse. The conditions noted are these: for blood vessel density vs H2O-treated control (CD31): 3 weeks post-ligation; for blood flow recovery one week after surgery: 20% ManN orally or 1 mg/ml Kif ip every other day, H2O group 25%. How it is done: The angiogenic effects of ManN and Kif in a mouse hindlimb ischemia model were assessed. The activity of ManN in a chronic ischemia model that might more specifically reflect its effects as an endothelial cell mitogen and a pro-angiogenic factor was assessed, and the hindlimb ischemia model in the mouse was considered. Several variants have been described, depending on which vessel is occluded. The variant chosen consists in ligation and excision of the femoral artery, which results in more severe ischemia compared to simple femoral artery ligation. Occlusion of two vessels produces more severe ischemia, but has the disadvantage of inducing severe pain and distress, as well as frequent ulcerations and necrosis in mice.
Oral administration of ManN was tested in this femoral artery ligation-excision model. Since Kif has been previously administered intraperitoneally for in vivo studies, this route was employed. Laser Doppler Perfusion Imaging (LDPI) was used as a non-invasive method to monitor time and extent of the blood flow recovery in the ischemic limb. Serial examination of blood flow was taken with LDPI and increment of the perfusion ratio of ischemic (ligated; left side) to non-ischemic (sham; right side) hindlimbs after ligation was used to indicate a recovery of blood flow. Starting immediately after surgery, mice were orally fed with 20% ManN or 1 mg/ml Kif ip every other day, as described in methods. One week after surgery, the perfusion ratio in H2O-fed group indicated a blood flow recovery of […], a value that is in good agreement with published data with the same type of lesion, in the same strain of mice.
C57BL/6 male mice (6-8 weeks old) were subjected to unilateral hindlimb surgery under anesthesia with ketamine/xylazine cocktail. Briefly, the left femoral artery was separated from the vein and nerve, ligated proximally, and excised. The right hindlimb served as control. Blood flow was measured by using a laser Doppler perfusion imager (PeriScan PSI; Perimed). Ischemic and nonischemic limb perfusion was measured before and after surgery and 1, 2 and 3 weeks later. After surgery, mice were randomly allocated to different groups (8 mice for each group). 200 μl of 20% ManN was orally administrated every other day from 3rd day after surgery. 200 μl of 1 mg/nil Kif was administrated through ip injection every other day. H2O was used as a vehicle control. The final blood flow values were expressed as the ratio of ischemic to nonischemic hindlimb perfusion from the same animal. Quantification of blood vessel area was carried out as described.

Each structure is given as a SMILES string.

On to `N[C@H](C=O)[C@@H](O)[C@H](O)[C@H](O)CO` [ManN, 2-Amino-2-deoxy-D-mannose], for which the “closure of the scratched area vs control” value in series [1] (40 μM ManN or 50 ng/ml of VEGF, after 48 hours) is reported as “significantly accelerated BCEC migration and/or proliferation”. For the same compound, in series [1] (both ManN and VEGF), the “additivity of ManN and VEGF in scratch assay” value is given as “additivity was observed”. In addition, the “additivity with VEGF in promoting BCEC proliferation” value in series [2] (5 ng/ml VEGF) is given as “additive with VEGF in promoting BCEC proliferation”. The “additivity with bFGF in promoting BCEC proliferation” value in series [2] (20 ng/ml bFGF, FIG. 11A) is given as “Additive effects”. In series [2] (0.5 μM to 1 mM, 5-6 days, with or without VEGF), the “shape of dose-response on BCEC proliferation” value was “bell-shaped dose-response curve, with inhibition at higher concentrations”. Moreover, the “dose range with significant stimulatory effects on BCEC proliferation” value in series [2] (BCEC) is recorded as 5-500 UM. Also, the “maximal fold increase in EC-covered surface” value in series [2] (ManN at 50 μM alone, crystal violet, FIG. 1A) is given as around 6.5 fold. In series [2] (as little as 4 μM ManN, even in the presence of VEGF), the “cytotoxicity in glucose-free media” value is “significant cytotoxicity”. Further, in series [2] (glucose-free media), the “additivity between ManN and VEGF in glucose-free media” value is “abolished”. In addition, the “activation of eNOS and ACC” value in series [3] (40 μM ManN, within 10-30 minutes) was “significantly activated”. Also, in series [3] (40 μM, BCECs), the “activation of ERK, AKT, mTOR and CREB” value was “activated”; the “time to stimulation of ERK, AKT and CREB after adding ManN” value lay in the range of 10 to 30 min. In addition, the “activation of ERK, AKT and CREB with ManN plus VEGF vs either alone” value in series [3] (both ManN and VEGF present) is “enhancement in activation”. In the series on ischemic hindlimb, the “blood vessel density vs H2O-treated control (CD31)” value is listed as 2.3 times higher and the “blood flow recovery one week after surgery” value was “about 40%”.

With `O=C1N[C@@H]2[C@@H](O)[C@@H](O)[C@H](O)[C@@H](CO)N2C1=O` [Kif, Kifunensine, reference compound], the “gap closing in BCEC scratch assay by glycosylation inhibitors” value in series [1] (over 48 hours relative to control) is “significant activity”. The “BCEC proliferation by glycosylation inhibitors” value in series [2] (0.01 to 100 μM, 3 days, absence or presence of 5 ng/ml VEGF) is on record as “stimulated in a dose-dependent fashion”. The “activation of ERK and AKT in BCECs by glycosylation inhibitors” value in series [3] (40 μM, FIG. 7E) is “significantly activate ERK and AKT”. Besides, in the series with ischemic hindlimb, the “blood vessel density vs H2O-treated control (CD31)” value was determined as 1.8 times higher and the “blood flow recovery one week after surgery” value is around 47%.
